Measurements reported in the kinase profiling compilation of Christmann-Franck et al. (2016).

Legend:
Test in all cases: radiometric filter-binding kinase assay, Kinase HotSpot
Conditions in all cases: compound 0.5 µM; ATP 10 µM
ACVRL1 (human) = ACVRL1 (human) (UniProt P37023)
BRSK1 (human) = BRSK1 (human) (UniProt Q8TDC3)
CAMK2G (human) = CAMK2G (human) (UniProt Q13555)
CDC42BPB (human) = CDC42BPB (human) (UniProt Q9Y5S2)
CDK2 CCNE1 (human) = CDK2 CCNE1 (human) (UniProt P24941+P24864)
CDK6 CCND3 (human) = CDK6 CCND3 (human) (UniProt P30281+Q00534)
CDK9 CCNT1 (human) = CDK9 CCNT1 (human) (UniProt P50750+O60563)
CLK1 (human) = CLK1 (human) (UniProt P49759)
CLK3 (human) = CLK3 (human) (UniProt P49761)
CLK4 (human) = CLK4 (human) (UniProt Q9HAZ1)
CSK (human) = CSK (human) (UniProt P41240)
Sequence of CSK (human) (P41240 whole entry, looked up): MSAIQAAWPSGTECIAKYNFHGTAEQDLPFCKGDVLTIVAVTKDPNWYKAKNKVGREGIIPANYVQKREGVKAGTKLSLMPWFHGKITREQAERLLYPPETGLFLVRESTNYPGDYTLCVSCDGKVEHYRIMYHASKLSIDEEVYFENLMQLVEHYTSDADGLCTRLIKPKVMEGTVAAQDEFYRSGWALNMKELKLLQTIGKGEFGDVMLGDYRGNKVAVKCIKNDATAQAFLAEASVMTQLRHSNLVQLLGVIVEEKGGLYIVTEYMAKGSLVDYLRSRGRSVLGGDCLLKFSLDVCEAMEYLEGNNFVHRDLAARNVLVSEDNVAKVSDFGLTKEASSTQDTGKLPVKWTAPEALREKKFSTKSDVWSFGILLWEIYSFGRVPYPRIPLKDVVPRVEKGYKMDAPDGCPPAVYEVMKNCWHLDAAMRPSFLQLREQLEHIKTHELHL

CSNK1A1 (human) = CSNK1A1 (human) (UniProt P48729)
CSNK2A1 (human) = CSNK2A1 (human) (UniProt P68400)
Sequence of CSNK2A1 (human) (P68400 whole entry, looked up): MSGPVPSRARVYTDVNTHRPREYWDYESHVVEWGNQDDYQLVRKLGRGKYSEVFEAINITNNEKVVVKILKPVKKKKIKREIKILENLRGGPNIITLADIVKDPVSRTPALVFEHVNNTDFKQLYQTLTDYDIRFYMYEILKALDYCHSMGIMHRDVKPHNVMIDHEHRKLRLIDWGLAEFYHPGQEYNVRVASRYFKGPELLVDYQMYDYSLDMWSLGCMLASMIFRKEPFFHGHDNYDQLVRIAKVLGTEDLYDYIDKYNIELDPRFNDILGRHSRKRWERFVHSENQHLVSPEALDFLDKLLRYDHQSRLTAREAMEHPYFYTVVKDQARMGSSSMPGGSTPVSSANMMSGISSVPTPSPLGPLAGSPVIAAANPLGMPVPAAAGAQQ

DAPK2 (human) = DAPK2 (human) (UniProt Q9UIK4)
Sequence of DAPK2 (human) (Q9UIK4 whole entry, looked up): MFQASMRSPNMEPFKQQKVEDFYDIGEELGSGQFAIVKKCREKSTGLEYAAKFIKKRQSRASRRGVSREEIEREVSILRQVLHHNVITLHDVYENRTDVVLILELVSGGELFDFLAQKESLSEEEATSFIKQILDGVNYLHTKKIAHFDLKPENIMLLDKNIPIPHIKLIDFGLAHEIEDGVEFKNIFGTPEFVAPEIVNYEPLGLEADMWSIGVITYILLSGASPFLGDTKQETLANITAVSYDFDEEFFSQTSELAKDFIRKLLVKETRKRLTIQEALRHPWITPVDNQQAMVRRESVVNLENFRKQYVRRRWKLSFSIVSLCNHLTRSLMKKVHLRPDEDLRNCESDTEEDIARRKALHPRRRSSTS

DAPK3 (human) = DAPK3 (human) (UniProt O43293)
DYRK4 (human) = DYRK4 (human) (UniProt Q9NR20)
EPHA7 (human) = EPHA7 (human) (UniProt Q15375)
EPHB4 (human) = EPHB4 (human) (UniProt P54760)
ERBB4 (human) = ERBB4 (human) (UniProt Q15303)
GRK7 (human) = GRK7 (human) (UniProt Q8WTQ7)
GSK3B (human) = GSK3B (human) (UniProt P49841)
JAK2 JH1 JH2 (human) = JAK2 JH1 JH2 (human) (UniProt O60674)
LIMK1 (human) = LIMK1 (human) (UniProt P53667)
MAP3K5 (human) = MAP3K5 (human) (UniProt Q99683)
MAP3K9 (human) = MAP3K9 (human) (UniProt P80192)
MAP4K5 (human) = MAP4K5 (human) (UniProt Q9Y4K4)
MAPK11 (human) = MAPK11 (human) (UniProt Q15759)
MERTK (human) = MERTK (human) (UniProt Q12866)
MINK1 (human) = MINK1 (human) (UniProt Q8N4C8)
MYLK2 (human) = MYLK2 (human) (UniProt Q9H1R3)
PNCK (human) = PNCK (human) (UniProt Q6P2M8)
Sequence of PNCK (human) (Q6P2M8 whole entry, looked up): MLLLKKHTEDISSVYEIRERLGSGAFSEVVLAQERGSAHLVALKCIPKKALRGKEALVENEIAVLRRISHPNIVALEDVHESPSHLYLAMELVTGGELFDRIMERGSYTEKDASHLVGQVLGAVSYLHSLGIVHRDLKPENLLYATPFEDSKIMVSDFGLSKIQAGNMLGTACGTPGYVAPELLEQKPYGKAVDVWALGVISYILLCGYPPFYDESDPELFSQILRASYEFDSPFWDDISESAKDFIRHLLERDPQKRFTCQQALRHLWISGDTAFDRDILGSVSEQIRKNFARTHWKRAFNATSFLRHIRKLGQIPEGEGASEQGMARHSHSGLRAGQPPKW

PTK2B (human) = PTK2B (human) (UniProt Q14289)
ROCK1 (human) = ROCK1 (human) (UniProt Q13464)
ROS1 (human) = ROS1 (human) (UniProt P08922)
Sequence of ROS1 (human) (P08922 whole entry, looked up): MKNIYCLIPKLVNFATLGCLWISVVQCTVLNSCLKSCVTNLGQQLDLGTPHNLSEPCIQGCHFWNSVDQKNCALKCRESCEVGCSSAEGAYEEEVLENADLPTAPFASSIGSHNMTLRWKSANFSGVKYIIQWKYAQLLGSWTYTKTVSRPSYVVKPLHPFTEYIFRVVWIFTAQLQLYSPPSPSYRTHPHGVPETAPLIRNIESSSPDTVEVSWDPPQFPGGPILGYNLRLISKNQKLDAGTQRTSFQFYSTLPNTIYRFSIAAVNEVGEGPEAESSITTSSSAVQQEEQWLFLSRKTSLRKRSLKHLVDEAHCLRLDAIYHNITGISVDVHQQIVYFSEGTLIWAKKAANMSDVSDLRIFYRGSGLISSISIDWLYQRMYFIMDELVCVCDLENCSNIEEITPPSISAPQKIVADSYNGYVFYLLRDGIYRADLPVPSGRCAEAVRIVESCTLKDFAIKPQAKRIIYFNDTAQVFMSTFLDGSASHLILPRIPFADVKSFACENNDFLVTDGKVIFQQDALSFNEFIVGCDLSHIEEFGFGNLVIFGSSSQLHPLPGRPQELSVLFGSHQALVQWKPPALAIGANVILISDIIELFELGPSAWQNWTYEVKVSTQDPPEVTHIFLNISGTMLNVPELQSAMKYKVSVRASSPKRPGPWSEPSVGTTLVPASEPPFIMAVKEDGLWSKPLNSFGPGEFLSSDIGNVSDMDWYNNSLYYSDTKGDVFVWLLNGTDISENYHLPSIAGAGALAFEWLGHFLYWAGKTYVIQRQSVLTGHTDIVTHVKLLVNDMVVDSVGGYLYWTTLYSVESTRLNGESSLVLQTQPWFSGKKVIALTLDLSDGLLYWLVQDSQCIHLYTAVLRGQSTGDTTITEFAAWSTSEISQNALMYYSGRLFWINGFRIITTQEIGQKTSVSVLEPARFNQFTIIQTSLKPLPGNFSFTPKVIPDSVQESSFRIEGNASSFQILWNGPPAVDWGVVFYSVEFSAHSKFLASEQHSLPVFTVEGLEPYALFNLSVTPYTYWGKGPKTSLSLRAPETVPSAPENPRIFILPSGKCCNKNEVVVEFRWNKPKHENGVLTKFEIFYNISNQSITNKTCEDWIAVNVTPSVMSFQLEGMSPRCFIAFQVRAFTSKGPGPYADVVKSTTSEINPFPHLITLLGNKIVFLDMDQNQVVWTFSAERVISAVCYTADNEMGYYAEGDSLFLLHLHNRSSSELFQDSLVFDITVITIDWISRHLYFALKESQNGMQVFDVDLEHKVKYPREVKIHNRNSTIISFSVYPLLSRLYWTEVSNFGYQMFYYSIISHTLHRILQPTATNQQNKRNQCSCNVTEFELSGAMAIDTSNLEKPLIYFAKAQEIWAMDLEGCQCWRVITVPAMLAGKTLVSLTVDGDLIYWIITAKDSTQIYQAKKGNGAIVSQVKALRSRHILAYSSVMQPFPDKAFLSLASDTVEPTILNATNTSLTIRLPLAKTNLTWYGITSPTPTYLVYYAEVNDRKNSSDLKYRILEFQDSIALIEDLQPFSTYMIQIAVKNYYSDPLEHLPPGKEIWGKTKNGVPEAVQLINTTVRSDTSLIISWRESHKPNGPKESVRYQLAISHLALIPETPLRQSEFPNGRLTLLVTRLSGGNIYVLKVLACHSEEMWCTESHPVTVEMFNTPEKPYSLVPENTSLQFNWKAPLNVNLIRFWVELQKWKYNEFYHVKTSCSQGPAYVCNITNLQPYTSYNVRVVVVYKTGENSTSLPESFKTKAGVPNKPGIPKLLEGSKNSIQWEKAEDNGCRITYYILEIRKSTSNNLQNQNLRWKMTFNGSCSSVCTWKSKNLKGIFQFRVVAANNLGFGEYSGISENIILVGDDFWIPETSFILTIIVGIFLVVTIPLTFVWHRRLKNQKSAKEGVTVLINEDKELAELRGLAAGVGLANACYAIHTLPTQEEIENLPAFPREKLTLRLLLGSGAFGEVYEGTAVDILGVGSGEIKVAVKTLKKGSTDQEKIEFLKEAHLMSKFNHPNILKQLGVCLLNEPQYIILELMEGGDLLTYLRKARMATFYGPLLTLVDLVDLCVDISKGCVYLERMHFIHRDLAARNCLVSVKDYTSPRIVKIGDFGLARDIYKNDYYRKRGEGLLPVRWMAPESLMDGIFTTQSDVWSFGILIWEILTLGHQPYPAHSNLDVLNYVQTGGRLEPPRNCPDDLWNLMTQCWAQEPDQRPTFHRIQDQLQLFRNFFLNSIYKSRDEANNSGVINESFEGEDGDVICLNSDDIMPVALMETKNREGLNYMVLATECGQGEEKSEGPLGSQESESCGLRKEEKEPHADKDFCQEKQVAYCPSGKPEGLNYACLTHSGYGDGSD

RPS6KA4 KD2 (human) = RPS6KA4 KD2 (human) (UniProt O75676)
RPS6KA5 KD2 (human) = RPS6KA5 KD2 (human) (UniProt O75582)
TAOK3 (human) = TAOK3 (human) (UniProt Q9H2K8)
TEC (human) = TEC (human) (UniProt P42680)
ULK1 (human) = ULK1 (human) (UniProt O75385)
Sequence of ULK1 (human) (O75385 whole entry, looked up): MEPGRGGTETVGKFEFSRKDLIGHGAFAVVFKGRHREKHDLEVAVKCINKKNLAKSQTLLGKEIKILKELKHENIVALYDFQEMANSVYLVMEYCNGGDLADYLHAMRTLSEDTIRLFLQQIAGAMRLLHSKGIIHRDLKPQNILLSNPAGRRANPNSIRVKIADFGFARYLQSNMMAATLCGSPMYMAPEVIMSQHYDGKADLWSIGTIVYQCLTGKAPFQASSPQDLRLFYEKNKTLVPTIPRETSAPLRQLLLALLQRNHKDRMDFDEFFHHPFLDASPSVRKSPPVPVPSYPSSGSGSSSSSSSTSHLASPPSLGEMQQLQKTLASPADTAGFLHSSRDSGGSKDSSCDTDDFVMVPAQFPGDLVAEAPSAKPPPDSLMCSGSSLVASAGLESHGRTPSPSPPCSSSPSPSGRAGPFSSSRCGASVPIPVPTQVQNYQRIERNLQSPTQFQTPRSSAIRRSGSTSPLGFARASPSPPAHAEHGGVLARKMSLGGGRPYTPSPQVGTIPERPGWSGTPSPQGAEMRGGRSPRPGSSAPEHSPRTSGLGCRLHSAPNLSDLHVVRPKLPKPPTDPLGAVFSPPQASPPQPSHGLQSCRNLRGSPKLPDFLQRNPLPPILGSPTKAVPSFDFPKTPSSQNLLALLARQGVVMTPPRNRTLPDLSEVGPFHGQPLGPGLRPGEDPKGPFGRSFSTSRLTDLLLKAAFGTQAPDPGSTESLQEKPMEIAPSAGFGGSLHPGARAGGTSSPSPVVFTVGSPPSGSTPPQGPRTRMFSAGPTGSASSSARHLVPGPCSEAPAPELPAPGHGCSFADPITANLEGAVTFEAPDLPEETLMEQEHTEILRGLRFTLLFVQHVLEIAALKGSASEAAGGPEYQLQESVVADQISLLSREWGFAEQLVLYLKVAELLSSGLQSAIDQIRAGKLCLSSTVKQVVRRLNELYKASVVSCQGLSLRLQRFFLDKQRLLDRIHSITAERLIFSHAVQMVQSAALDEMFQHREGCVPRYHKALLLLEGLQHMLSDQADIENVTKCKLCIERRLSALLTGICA

VRK1 (human) = VRK1 (human) (UniProt Q99986)
WNK3 (human) = WNK3 (human) (UniProt Q9BYP7)
TBK1 (human) = TBK1 (human) (UniProt Q9UHD2)

**Q.** With Nc1ncnc2c1cnn2-c1ccccc1 as the compound, how does the residual activity (ACVRL1 (human)) read?
**A.** The residual activity was 109%.

**Q.** What about the residual activity (BRSK1 (human)) of the same compound?
**A.** Its residual activity is 90.2%.

**Q.** What about the residual activity (CAMK2G (human)) of the same compound?
**A.** Its residual activity is 105%.

**Q.** And the residual activity (CDC42BPB (human))?
**A.** Its residual activity is 96.7%.

**Q.** What about the residual activity (CDK2 CCNE1 (human)) of the same compound?
**A.** Its residual activity is 93.9%.

**Q.** And the residual activity (CDK6 CCND3 (human))?
**A.** Its residual activity is 92.2%.

**Q.** What about the residual activity (CDK9 CCNT1 (human)) of the same compound?
**A.** The residual activity was 109%.

**Q.** What about the residual activity (CLK1 (human)) of the same compound?
**A.** The residual activity was 91.8%.

**Q.** And the residual activity (CLK3 (human))?
**A.** The residual activity was 96.1%.

**Q.** What about the residual activity (CLK4 (human)) of the same compound?
**A.** Its residual activity is 76.7%.

**Q.** And the residual activity (CSK (human))?
**A.** The residual activity was 86.8%.

**Q.** What about the residual activity (CSNK1A1 (human)) of the same compound?
**A.** The residual activity was 79.8%.

**Q.** And the residual activity (CSNK2A1 (human))?
**A.** Its residual activity is 94.4%.

**Q.** What about the residual activity (DAPK2 (human)) of the same compound?
**A.** The residual activity was 96.7%.

**Q.** And the residual activity (DAPK3 (human))?
**A.** Its residual activity is 103%.

**Q.** What about the residual activity (DYRK4 (human)) of the same compound?
**A.** The residual activity was 98.4%.

**Q.** What about the residual activity (EPHA7 (human)) of the same compound?
**A.** The residual activity was 99.2%.

**Q.** And the residual activity (EPHB4 (human))?
**A.** The residual activity was 103%.

**Q.** And the residual activity (ERBB4 (human))?
**A.** The residual activity was 101%.

**Q.** What about the residual activity (GRK7 (human)) of the same compound?
**A.** Its residual activity is 100%.

**Q.** And the residual activity (GSK3B (human))?
**A.** The residual activity was 91.6%.

**Q.** And the residual activity (JAK2 JH1 JH2 (human))?
**A.** Its residual activity is 91.6%.

**Q.** And the residual activity (LIMK1 (human))?
**A.** Its residual activity is 89.1%.

**Q.** What about the residual activity (MAP3K5 (human)) of the same compound?
**A.** The residual activity was 100%.

**Q.** And the residual activity (MAP3K9 (human))?
**A.** Its residual activity is 106%.

**Q.** What about the residual activity (MAP4K5 (human)) of the same compound?
**A.** The residual activity was 87.2%.

**Q.** What about the residual activity (MAPK11 (human)) of the same compound?
**A.** The residual activity was 99.9%.

**Q.** And the residual activity (MERTK (human))?
**A.** The residual activity was 94.3%.

**Q.** What about the residual activity (MINK1 (human)) of the same compound?
**A.** Its residual activity is 88.9%.

**Q.** What about the residual activity (MYLK2 (human)) of the same compound?
**A.** Its residual activity is 99.9%.

**Q.** What about the residual activity (PNCK (human)) of the same compound?
**A.** Its residual activity is 97.5%.

**Q.** And the residual activity (PTK2B (human))?
**A.** The residual activity was 108%.

**Q.** And the residual activity (ROCK1 (human))?
**A.** The residual activity was 93.8%.

**Q.** And the residual activity (ROS1 (human))?
**A.** Its residual activity is 94.2%.

**Q.** What about the residual activity (RPS6KA4 KD2 (human)) of the same compound?
**A.** Its residual activity is 106%.

**Q.** And the residual activity (RPS6KA5 KD2 (human))?
**A.** Its residual activity is 89%.

**Q.** What about the residual activity (TAOK3 (human)) of the same compound?
**A.** The residual activity was 89.1%.

**Q.** And the residual activity (TEC (human))?
**A.** The residual activity was 103%.

**Q.** And the residual activity (ULK1 (human))?
**A.** Its residual activity is 99.5%.

**Q.** And the residual activity (VRK1 (human))?
**A.** The residual activity was 84.4%.

**Q.** What about the residual activity (WNK3 (human)) of the same compound?
**A.** Its residual activity is 97.2%.

**Q.** Which results are given for CCCCc1c(-c2ccc(O)cc2)[nH]c2nccnc12?
**A.** residual activity (ACVRL1 (human)): 76.2%; residual activity (BRSK1 (human)): 89.1%; residual activity (CAMK2G (human)): 101%; residual activity (CDK2 CCNE1 (human)): 29.9%; residual activity (CDK6 CCND3 (human)): 84.6%; residual activity (CDK9 CCNT1 (human)): 45.9%; residual activity (CLK1 (human)): 97.9%; residual activity (CLK3 (human)): 121%; residual activity (CLK4 (human)): 64.3%; residual activity (CSK (human)): 78.2%; residual activity (CSNK1A1 (human)): 92.9%; residual activity (CSNK2A1 (human)): 95.9%; residual activity (DAPK2 (human)): 101%; residual activity (DAPK3 (human)): 94.9%; residual activity (DYRK4 (human)): 99.7%; residual activity (EPHA7 (human)): 89%; residual activity (EPHB4 (human)): 86%; residual activity (ERBB4 (human)): 102%; residual activity (GRK7 (human)): 82.4%; residual activity (GSK3B (human)): 75.4%; residual activity (JAK2 JH1 JH2 (human)): 77.8%; residual activity (LIMK1 (human)): 64.3%; residual activity (MAP3K5 (human)): 99.3%; residual activity (MAP3K9 (human)): 37.3%; residual activity (MAP4K5 (human)): 65.3%; residual activity (MAPK11 (human)): 103%; residual activity (MERTK (human)): 94.1%; residual activity (MINK1 (human)): 82%; residual activity (MYLK2 (human)): 95.7%; residual activity (PNCK (human)): 109%; residual activity (PTK2B (human)): 99%; residual activity (ROCK1 (human)): 98.6%; residual activity (ROS1 (human)): 26.3%; residual activity (RPS6KA4 KD2 (human)): 87.5%; residual activity (RPS6KA5 KD2 (human)): 101%; residual activity (TAOK3 (human)): 82.5%; residual activity (TBK1 (human)): 82.1%; residual activity (TEC (human)): 87.3%; residual activity (ULK1 (human)): 82.5%; residual activity (VRK1 (human)): 87.9%; residual activity (WNK3 (human)): 90.3%
